Measurements: US20200121665A1, “PPAR GAMMA MODULATORS FOR TREATING CYSTIC DISEASES” (Indiana University Research and Technology Corporation, priority 2013, published 2020)
Like-named read-outs stand apart in the source and are kept apart here.

Assays:
PCK rat [1] = settings: for Statistics (a): KW % BW, significance compared to control / Statistics (a): Kidney Weight (KW), significance compared to control / KW % BW / Kidney Weight (KW) / LW % BW / Liver % Fibrocystic / Liver Weight (LW): 24 weeks
From the text: PCK rat animal model of slowly-progressing PKD. The PCK rat is an animal model that has a orthologous genetic mutation to the human autosomal recessive polycystic kidney disease (ARPKD), but has the phenotypic characteristics of human ADPKD, including renal and liver fibrocystic disease. The Pck gene of the rat is an orthologue to the PKHD-1 gene responsible for ARPKD. The animal model develops both kidney and liver fibrocystic diseases, and is slow progressing. […] Only females are used in the study.
Briefly, after weaning, test animals are fed a diet containing increasing doses of a PPARγ modulator, normalized to body weight, and compared to untreated control fed normal diet. A hematocrit is measured to assess the presence or absence of fluid retention. […] The untreated control group fed the same diet without any PPARγ modulators.
Animals are sacrificed and total body weight is recorded. Total kidney weight is recorded, total liver weight is recorded, and heart weight is recorded. Blood is collected via cardiac puncture, and serum and plasma samples are collected. The liver and kidney were embedded in paraffin and transversely sectioned and stained with hematoxylin, and eosin. The percent kidney weight to body weight was calculated. After histology on the kidney, renal cyst volume was determined through point count stereology methods. From the total liver weight, the percent liver to body weight was calculated. Following histology and picrosiruis red staining, the percent fibrosis can be determined through point count stereology methods. Heart weight is determined and the percent heart weight to body weight is calculated to assess heart disease, such as due to fluid retention, a reported side effect associated with PPARγ agonist treatment. Hearts are preserved in 4% paraformaldehyde. Liver enzymes, glucose levels, and ion levels are evaluated using the blood and urine samples.

PCK rat [2] = settings: 14 week study, 20 mg/kg BW; cited from earlier work

For `CN(CCOc1ccc(CC2SC(=O)NC2=O)cc1)c1ccccn1` (centres unmarked) [Rosiglitazone, rosiglitazone], the “Statistics (a): KW % BW, significance compared to control” value (PCK rat [1]; 0.04 mg/kg BW diet) was “S”, the “Statistics (a): Kidney Weight (KW), significance compared to control” value (PCK rat [1]; 0.04 mg/kg BW diet) was “S” and the “KW % BW” value (PCK rat [1]; 0.04 mg/kg BW diet, n = 8) was 0.95 ± 0.15%. For the same molecule, the “Kidney Weight (KW)” value (PCK rat [1]; 0.04 mg/kg BW diet, n = 8) was 3.68 ± 0.14 g, the “LW % BW” value (PCK rat [1]; 0.04 mg/kg BW diet, n = 8) was 7.11 ± 0.27% and the “Liver % Fibrocystic” value (PCK rat [1]; 0.04 mg/kg BW diet, n = 8) was 35.36 ± 3.74%. For the same molecule, the “Liver Weight (LW)” value (PCK rat [1]; 0.04 mg/kg BW diet, n = 8) was 24.23 ± 0.10 g, the “KW % BW” value (PCK rat [1]; 0.4 mg/kg BW diet, n = 8) was 1.27 ± 0.08% and the “Kidney Weight (KW)” value (PCK rat [1]; 0.4 mg/kg BW diet, n = 8) was 4.27 ± 0.22 g. The “LW % BW” value (PCK rat [1]; 0.4 mg/kg BW diet, n = 8) was 6.50 ± 0.57%, the “Liver % Fibrocystic” value (PCK rat [1]; 0.4 mg/kg BW diet, n = 8) was 36.81 ± 3.61% and the “Liver Weight (LW)” value (PCK rat [1]; 0.4 mg/kg BW diet, n = 8) was 22.05 ± 2.07 g. The “Statistics (a): KW % BW, significance compared to control” value (PCK rat [1]; 4.0 mg/kg BW diet) was “S”, the “Statistics (a): Kidney Weight (KW), significance compared to control” value (PCK rat [1]; 4.0 mg/kg BW diet) was “S” and the “KW % BW” value (PCK rat [1]; 4.0 mg/kg BW diet, n = 3) was 0.94 ± 0.06%. The “Kidney Weight (KW)” value (PCK rat [1]; 4.0 mg/kg BW diet, n = 3) was 3.56 ± 0.26 g, the “LW % BW” value (PCK rat [1]; 4.0 mg/kg BW diet, n = 3) was 5.97 ± 1.38% and the “Liver % Fibrocystic” value (PCK rat [1]; 4.0 mg/kg BW diet, n = 3) was 36.17 ± 0.38%. The “Liver Weight (LW)” value (PCK rat [1]; 4.0 mg/kg BW diet, n = 3) was 22.66 ± 5.39 g, the serum electrolytes (PCK rat [1]; at any concentration) was “not altered” and the “test animals died or had to be sacrificed during treatment due to cholangitis” value (PCK rat [1]; high dose group) was 9/12. The glucose (PCK rat [1]; rat, in vivo) was “not observed”, the “hematocrits vs control animals” value (PCK rat [1]; rat, in vivo) was “not different from the control animals” and the “side effects (increased body weight or cholangitis)” value (PCK rat [1]; rat, in vivo) was “no detected side effects”.

In the case of `CCc1ccc(CCOc2ccc(CC3SC(=O)NC3=O)cc2)nc1` (centres unmarked) [pioglitazone], the “kidney function by serum analysis” value (PCK rat [2]) is listed as “well-preserved kidney function” and the “liver enzymes by serum analysis” value (PCK rat [2]) is listed as “increased”.
